Reference: US8221775B2, “Pyrrolin-2-ylamino compounds for combating animal pests” (BASF SE, priority 2008, dated 2012)

## Brc1ccc(C2CCC(NC(Cc3ccccc3)c3ccccc3)=N2)cc1 (stereo not shown)
  melting point: 130 to 134 °C
